Source: ChEMBL document CHEMBL3991601, “The target landscape of clinical kinase drugs” (Science, 2017)
Calls of active or inactive are those of the source. For most assays here, no stated cut-off is given here; in the data, actives have a measured Kd and inactives only a lower limit.

Each compound was assayed against T1, Activin receptor type-1 (Homo sapiens, UniProt Q04771).
T1 sequence (Q04771 whole entry): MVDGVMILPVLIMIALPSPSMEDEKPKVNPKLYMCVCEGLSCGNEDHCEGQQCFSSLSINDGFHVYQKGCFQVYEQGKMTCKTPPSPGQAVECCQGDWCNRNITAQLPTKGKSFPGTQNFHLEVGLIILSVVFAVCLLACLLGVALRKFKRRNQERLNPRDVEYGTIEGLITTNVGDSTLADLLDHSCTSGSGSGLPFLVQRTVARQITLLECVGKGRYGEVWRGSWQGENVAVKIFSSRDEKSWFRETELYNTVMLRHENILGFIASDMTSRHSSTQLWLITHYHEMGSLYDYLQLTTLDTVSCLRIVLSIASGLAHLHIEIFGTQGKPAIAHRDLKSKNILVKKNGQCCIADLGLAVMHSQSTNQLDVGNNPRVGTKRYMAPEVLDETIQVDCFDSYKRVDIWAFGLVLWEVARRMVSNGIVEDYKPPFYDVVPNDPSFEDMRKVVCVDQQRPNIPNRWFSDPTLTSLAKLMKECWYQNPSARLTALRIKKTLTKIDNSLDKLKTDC

SMILES | Kd
O=C1NC(=O)/C(=C/c2ccc3nccc(-c4ccncc4)c3c2)S1 [GSK-1059615] | > 30 µM (inactive)
CC[C@H](Nc1ncnc2[nH]cnc12)c1nc2cccc(F)c2c(=O)n1-c1ccccc1 [IDELALISIB] | > 30 µM (inactive)
Cn1cc(-c2ccc3nnc(C(F)(F)c4ccc5ncccc5c4)n3n2)cn1 [JNJ-38877605] | > 30 µM (inactive)

What follows are compounds tested against T2, cGMP-dependent protein kinase 1 (Homo sapiens, UniProt Q13976).
T2 sequence (Q13976 whole entry): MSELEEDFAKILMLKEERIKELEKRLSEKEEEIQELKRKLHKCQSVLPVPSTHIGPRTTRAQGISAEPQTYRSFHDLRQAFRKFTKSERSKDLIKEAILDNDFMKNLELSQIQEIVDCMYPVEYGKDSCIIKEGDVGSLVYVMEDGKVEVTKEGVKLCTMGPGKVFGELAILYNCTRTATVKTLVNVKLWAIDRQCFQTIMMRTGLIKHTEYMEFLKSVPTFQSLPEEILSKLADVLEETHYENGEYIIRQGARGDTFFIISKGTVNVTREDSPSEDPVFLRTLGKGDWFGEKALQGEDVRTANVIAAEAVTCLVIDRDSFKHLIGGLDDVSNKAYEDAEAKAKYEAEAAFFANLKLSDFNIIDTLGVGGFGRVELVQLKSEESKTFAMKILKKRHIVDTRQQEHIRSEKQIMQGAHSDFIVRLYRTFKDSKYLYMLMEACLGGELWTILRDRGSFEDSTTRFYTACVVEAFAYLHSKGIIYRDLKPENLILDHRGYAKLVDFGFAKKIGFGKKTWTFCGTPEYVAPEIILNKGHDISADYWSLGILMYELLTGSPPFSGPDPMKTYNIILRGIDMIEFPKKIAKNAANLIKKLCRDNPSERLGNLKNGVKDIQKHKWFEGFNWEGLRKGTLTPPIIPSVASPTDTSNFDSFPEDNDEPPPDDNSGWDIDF

SMILES | Kd
O=C1NC(=O)/C(=C/c2ccc3nccc(-c4ccncc4)c3c2)S1 [GSK-1059615] | > 30 µM (inactive)
CC[C@H](Nc1ncnc2[nH]cnc12)c1nc2cccc(F)c2c(=O)n1-c1ccccc1 [IDELALISIB] | > 30 µM (inactive)
Cn1cc(-c2ccc3nnc(C(F)(F)c4ccc5ncccc5c4)n3n2)cn1 [JNJ-38877605] | > 30 µM (inactive)

The compounds below were run against T3, Interleukin-1 receptor-associated kinase 4 (Homo sapiens, UniProt Q9NWZ3).
T3 sequence (Q9NWZ3 whole entry): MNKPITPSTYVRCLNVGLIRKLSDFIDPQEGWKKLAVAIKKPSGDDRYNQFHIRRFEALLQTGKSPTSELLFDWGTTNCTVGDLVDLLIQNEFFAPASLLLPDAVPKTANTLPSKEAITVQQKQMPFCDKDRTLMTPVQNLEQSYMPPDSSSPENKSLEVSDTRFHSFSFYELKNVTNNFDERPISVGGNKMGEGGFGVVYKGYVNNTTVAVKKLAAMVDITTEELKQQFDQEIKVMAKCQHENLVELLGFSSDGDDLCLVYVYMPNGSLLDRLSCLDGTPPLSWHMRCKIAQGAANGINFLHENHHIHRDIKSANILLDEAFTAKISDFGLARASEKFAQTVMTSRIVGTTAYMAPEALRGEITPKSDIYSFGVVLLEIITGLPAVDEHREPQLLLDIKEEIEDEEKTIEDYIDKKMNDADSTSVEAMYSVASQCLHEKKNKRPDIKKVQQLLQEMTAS

SMILES | Kd
O=C1NC(=O)/C(=C/c2ccc3nccc(-c4ccncc4)c3c2)S1 [GSK-1059615] | > 30 µM (inactive)
CC[C@H](Nc1ncnc2[nH]cnc12)c1nc2cccc(F)c2c(=O)n1-c1ccccc1 [IDELALISIB] | > 30 µM (inactive)
Cn1cc(-c2ccc3nnc(C(F)(F)c4ccc5ncccc5c4)n3n2)cn1 [JNJ-38877605] | > 30 µM (inactive)

These compounds were tested against Serine/threonine-protein kinase N2 (Homo sapiens, UniProt Q16513).
Chain of Serine/threonine-protein kinase N2 (Q16513 whole entry): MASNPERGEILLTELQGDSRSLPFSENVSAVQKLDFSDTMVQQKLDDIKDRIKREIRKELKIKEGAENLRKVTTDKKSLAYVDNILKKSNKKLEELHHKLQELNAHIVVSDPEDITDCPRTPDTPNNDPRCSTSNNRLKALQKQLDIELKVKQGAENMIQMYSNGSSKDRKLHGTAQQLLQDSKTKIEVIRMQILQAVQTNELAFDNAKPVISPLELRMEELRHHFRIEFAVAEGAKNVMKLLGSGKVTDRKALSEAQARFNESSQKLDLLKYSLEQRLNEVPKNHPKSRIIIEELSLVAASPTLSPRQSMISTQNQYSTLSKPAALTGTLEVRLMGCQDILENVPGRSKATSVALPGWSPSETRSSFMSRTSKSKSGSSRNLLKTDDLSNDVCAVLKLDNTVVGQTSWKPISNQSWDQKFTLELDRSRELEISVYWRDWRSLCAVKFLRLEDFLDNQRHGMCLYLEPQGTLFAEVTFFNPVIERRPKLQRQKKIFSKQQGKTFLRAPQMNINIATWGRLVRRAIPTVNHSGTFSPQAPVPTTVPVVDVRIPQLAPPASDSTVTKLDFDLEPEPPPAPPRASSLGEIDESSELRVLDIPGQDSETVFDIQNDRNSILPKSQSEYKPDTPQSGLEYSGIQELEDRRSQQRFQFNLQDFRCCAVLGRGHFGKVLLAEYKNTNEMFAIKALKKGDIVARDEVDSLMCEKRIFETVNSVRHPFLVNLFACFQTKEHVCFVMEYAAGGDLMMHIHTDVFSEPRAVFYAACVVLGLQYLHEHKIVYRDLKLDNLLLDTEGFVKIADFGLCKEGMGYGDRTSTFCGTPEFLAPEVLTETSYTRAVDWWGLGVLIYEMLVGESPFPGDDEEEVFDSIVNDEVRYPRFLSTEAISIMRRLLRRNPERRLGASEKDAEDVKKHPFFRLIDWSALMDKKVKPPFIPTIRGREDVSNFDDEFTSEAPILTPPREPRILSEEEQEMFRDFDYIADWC

SMILES | Kd
O=C1NC(=O)/C(=C/c2ccc3nccc(-c4ccncc4)c3c2)S1 [GSK-1059615] | > 30 µM (inactive)
CC[C@H](Nc1ncnc2[nH]cnc12)c1nc2cccc(F)c2c(=O)n1-c1ccccc1 [IDELALISIB] | > 30 µM (inactive)
Cn1cc(-c2ccc3nnc(C(F)(F)c4ccc5ncccc5c4)n3n2)cn1 [JNJ-38877605] | > 30 µM (inactive)

The compounds below were run against BMP-2-inducible protein kinase (Homo sapiens, UniProt Q9NSY1).
Chain of BMP-2-inducible protein kinase (Q9NSY1 whole entry): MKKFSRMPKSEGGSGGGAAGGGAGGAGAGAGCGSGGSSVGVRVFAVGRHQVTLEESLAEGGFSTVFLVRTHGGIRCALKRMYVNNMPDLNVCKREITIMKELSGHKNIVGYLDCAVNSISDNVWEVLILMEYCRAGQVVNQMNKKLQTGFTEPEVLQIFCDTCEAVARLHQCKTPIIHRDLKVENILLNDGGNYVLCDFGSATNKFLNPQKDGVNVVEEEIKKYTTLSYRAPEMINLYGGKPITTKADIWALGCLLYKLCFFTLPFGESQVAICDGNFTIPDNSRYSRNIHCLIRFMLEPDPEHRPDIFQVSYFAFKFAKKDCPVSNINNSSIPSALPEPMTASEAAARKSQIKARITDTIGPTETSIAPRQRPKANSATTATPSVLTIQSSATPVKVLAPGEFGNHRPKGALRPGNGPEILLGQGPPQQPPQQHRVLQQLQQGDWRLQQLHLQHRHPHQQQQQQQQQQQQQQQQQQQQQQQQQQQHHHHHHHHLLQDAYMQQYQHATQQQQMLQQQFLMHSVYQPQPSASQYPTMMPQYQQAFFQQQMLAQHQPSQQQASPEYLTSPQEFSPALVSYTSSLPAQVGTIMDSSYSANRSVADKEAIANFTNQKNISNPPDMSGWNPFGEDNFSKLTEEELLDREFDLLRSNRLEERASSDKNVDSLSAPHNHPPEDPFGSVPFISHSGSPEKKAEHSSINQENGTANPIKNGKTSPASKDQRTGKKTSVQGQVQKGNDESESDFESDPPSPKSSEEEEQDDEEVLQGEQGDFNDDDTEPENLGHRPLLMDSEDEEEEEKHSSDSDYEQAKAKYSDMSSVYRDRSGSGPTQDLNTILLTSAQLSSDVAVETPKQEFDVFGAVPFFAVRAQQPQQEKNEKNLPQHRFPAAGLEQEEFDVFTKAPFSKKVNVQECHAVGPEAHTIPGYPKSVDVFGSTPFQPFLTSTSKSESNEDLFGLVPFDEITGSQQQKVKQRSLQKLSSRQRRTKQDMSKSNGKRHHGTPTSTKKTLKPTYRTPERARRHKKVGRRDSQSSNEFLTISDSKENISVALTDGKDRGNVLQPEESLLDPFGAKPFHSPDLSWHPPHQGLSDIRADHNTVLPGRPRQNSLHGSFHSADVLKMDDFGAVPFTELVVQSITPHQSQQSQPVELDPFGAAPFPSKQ

SMILES | Kd
O=C1NC(=O)/C(=C/c2ccc3nccc(-c4ccncc4)c3c2)S1 [GSK-1059615] | 0.402 µM (active)
CC[C@H](Nc1ncnc2[nH]cnc12)c1nc2cccc(F)c2c(=O)n1-c1ccccc1 [IDELALISIB] | > 30 µM (inactive)
Cn1cc(-c2ccc3nnc(C(F)(F)c4ccc5ncccc5c4)n3n2)cn1 [JNJ-38877605] | > 30 µM (inactive)

These compounds were tested against Tyrosine-protein kinase ABL1 (Homo sapiens, UniProt P00519).
Chain of Tyrosine-protein kinase ABL1 (P00519 whole entry): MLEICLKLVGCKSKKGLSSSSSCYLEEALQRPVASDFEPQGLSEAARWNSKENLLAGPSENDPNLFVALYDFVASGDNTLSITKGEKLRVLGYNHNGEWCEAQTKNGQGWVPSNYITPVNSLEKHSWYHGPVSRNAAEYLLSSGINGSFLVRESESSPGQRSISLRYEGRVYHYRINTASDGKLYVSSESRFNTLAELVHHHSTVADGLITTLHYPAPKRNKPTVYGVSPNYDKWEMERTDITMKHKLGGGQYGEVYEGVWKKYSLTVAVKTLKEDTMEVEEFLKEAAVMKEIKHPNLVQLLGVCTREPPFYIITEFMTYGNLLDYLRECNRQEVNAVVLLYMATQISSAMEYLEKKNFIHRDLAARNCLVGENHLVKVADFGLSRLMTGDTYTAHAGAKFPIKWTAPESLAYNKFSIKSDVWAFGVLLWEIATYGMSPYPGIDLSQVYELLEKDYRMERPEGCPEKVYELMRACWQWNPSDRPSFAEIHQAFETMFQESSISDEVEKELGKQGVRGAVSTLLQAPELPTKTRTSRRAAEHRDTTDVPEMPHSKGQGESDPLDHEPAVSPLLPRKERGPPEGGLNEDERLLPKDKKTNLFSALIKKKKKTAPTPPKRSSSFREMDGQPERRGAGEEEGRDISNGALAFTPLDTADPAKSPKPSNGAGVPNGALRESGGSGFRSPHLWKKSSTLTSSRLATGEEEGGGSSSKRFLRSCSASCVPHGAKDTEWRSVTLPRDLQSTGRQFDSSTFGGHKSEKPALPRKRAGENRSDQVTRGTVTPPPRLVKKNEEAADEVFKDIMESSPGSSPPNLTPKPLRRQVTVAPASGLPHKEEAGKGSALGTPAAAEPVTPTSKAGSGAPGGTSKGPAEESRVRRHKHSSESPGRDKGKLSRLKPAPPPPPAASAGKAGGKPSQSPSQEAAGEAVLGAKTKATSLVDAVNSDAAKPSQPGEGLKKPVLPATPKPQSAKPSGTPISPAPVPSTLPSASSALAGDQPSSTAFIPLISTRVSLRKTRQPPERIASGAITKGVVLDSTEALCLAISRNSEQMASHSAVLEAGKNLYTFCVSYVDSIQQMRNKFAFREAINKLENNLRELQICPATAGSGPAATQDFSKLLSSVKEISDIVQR

SMILES | Kd
O=C1NC(=O)/C(=C/c2ccc3nccc(-c4ccncc4)c3c2)S1 [GSK-1059615] | > 30 µM (inactive)
CC[C@H](Nc1ncnc2[nH]cnc12)c1nc2cccc(F)c2c(=O)n1-c1ccccc1 [IDELALISIB] | > 30 µM (inactive)
Cn1cc(-c2ccc3nnc(C(F)(F)c4ccc5ncccc5c4)n3n2)cn1 [JNJ-38877605] | > 30 µM (inactive)

Each compound was assayed against T4, Exosome RNA helicase MTR4 (Homo sapiens, UniProt P42285).
T4 sequence (P42285 whole entry): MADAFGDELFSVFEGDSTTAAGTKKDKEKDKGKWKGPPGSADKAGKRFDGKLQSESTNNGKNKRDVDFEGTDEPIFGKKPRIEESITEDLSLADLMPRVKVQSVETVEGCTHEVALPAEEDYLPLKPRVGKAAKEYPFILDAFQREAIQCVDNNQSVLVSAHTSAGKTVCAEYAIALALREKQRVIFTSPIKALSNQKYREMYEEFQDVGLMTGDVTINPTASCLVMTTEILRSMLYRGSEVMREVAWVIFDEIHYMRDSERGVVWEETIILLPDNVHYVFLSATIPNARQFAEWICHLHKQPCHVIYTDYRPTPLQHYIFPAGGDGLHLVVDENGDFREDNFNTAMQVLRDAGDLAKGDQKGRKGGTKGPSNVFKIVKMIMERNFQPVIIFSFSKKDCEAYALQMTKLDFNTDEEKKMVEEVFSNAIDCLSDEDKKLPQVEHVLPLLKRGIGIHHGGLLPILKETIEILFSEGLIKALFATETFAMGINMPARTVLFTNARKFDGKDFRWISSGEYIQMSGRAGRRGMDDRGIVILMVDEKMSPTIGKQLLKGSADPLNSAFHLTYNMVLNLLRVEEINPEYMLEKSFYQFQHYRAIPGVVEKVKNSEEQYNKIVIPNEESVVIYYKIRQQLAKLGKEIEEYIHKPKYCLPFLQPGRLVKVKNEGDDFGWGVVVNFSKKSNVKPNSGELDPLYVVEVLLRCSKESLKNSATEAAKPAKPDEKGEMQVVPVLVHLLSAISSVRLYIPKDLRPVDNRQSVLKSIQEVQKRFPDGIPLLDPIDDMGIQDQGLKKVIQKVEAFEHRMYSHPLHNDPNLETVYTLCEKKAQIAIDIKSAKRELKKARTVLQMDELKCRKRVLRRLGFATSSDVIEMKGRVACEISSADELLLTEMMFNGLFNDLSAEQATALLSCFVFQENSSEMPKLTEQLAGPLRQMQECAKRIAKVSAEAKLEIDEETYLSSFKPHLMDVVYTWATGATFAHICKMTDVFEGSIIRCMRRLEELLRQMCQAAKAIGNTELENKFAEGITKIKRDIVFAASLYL

SMILES | Kd
O=C1NC(=O)/C(=C/c2ccc3nccc(-c4ccncc4)c3c2)S1 [GSK-1059615] | > 30 µM (inactive)
CC[C@H](Nc1ncnc2[nH]cnc12)c1nc2cccc(F)c2c(=O)n1-c1ccccc1 [IDELALISIB] | > 30 µM (inactive)
Cn1cc(-c2ccc3nnc(C(F)(F)c4ccc5ncccc5c4)n3n2)cn1 [JNJ-38877605] | > 30 µM (inactive)

What follows are compounds tested against Ephrin type-A receptor 4 (Homo sapiens, UniProt P54764).
Chain of Ephrin type-A receptor 4 (P54764 whole entry): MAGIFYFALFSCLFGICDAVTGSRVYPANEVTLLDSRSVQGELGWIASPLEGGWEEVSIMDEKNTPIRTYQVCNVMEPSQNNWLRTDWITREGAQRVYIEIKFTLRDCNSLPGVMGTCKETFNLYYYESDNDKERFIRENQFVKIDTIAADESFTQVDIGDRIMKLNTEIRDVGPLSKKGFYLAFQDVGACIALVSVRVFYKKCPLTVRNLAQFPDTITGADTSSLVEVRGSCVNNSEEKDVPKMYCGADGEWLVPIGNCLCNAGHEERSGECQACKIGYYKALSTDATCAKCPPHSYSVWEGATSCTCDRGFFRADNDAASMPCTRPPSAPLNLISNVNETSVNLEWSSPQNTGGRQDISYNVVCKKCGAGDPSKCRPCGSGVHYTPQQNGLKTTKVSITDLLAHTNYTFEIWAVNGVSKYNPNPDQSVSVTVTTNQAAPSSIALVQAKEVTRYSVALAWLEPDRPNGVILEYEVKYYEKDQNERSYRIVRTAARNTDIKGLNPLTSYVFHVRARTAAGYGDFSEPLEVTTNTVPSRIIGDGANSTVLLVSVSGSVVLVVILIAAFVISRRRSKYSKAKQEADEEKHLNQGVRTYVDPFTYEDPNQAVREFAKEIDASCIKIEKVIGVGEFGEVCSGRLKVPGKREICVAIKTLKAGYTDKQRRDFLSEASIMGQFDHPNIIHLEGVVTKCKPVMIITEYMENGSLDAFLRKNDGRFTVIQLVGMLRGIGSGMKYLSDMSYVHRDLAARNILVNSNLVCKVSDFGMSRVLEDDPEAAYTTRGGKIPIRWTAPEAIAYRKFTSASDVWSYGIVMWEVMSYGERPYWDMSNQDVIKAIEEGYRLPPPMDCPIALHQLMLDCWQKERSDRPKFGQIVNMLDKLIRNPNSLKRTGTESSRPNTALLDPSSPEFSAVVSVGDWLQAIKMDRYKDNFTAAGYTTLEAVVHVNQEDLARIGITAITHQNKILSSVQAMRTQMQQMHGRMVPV

SMILES | Kd
O=C1NC(=O)/C(=C/c2ccc3nccc(-c4ccncc4)c3c2)S1 [GSK-1059615] | > 30 µM (inactive)
CC[C@H](Nc1ncnc2[nH]cnc12)c1nc2cccc(F)c2c(=O)n1-c1ccccc1 [IDELALISIB] | > 30 µM (inactive)
Cn1cc(-c2ccc3nnc(C(F)(F)c4ccc5ncccc5c4)n3n2)cn1 [JNJ-38877605] | > 30 µM (inactive)

These compounds were tested against Serine/threonine-protein kinase PAK 4 (Homo sapiens, UniProt O96013).
Chain of Serine/threonine-protein kinase PAK 4 (O96013 whole entry): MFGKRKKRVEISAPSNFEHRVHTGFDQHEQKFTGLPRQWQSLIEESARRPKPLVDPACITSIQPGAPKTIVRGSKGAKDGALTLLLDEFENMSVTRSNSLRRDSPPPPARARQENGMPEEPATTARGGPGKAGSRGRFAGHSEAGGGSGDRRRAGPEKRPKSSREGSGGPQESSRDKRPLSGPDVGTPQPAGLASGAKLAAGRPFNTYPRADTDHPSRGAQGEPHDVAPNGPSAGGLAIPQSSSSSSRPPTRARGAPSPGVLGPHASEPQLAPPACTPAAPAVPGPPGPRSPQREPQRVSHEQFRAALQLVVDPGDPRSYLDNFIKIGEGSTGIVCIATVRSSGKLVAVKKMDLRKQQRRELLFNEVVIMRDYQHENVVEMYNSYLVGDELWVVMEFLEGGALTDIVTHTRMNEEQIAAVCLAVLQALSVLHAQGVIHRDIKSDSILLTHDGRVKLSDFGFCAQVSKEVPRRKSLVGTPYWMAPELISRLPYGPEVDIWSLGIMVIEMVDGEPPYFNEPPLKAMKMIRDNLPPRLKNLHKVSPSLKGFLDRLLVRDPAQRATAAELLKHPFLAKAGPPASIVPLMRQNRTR

SMILES | Kd
O=C1NC(=O)/C(=C/c2ccc3nccc(-c4ccncc4)c3c2)S1 [GSK-1059615] | > 30 µM (inactive)
CC[C@H](Nc1ncnc2[nH]cnc12)c1nc2cccc(F)c2c(=O)n1-c1ccccc1 [IDELALISIB] | > 30 µM (inactive)
Cn1cc(-c2ccc3nnc(C(F)(F)c4ccc5ncccc5c4)n3n2)cn1 [JNJ-38877605] | > 30 µM (inactive)

The compounds below were run against Tyrosine-protein kinase Lck (Homo sapiens, UniProt P06239).

SMILES | Kd
O=C1NC(=O)/C(=C/c2ccc3nccc(-c4ccncc4)c3c2)S1 [GSK-1059615] | > 30 µM (inactive)
CC[C@H](Nc1ncnc2[nH]cnc12)c1nc2cccc(F)c2c(=O)n1-c1ccccc1 [IDELALISIB] | > 30 µM (inactive)
Cn1cc(-c2ccc3nnc(C(F)(F)c4ccc5ncccc5c4)n3n2)cn1 [JNJ-38877605] | > 30 µM (inactive)
